Test results taken from US20110183891A1 (priority 2009, published 2011).
Entries after “also recorded” stand apart in the source; their conditions may differ. Positions of bridges follow the written chain, without caps; N, C: chain ends. Non-standard residues stand in square brackets, D forms with d. Residues, ends and D or L forms follow the SMILES beside them. hArg = N=C(N)NCCCC[C@H](N)C(=O)O; Mpa = O=C(O)CCS

Assays:
[1] = test system: SAP 6 binding to A549 cells; assay: Inhibition of labeled SAP 6 binding to human lung carcinoma A549 cells (FACS); format: cell-based; details: for ratio of positive cells in R4: 400 μM inhibitor + labeled SAP 6, cells + labeled SAP 6 alone 3.23%, cells only 0.69%; for inhibition of SAP 6 binding to A549 cells: 10° C. for 30 min, FACS
Procedure: RGDS peptide or Integrilin® inhibition assay and cell viability assay. Grew human lung carcinoma A 549 cell and harvested the cells with 46×10^4 per ml. Changed the medium from complete growth medium into D-MEM/F-12 without phenol red; and transferred the aliquot volume of 0.2 ml cells into 1.5 ml sterile tubes. Added 50 μl of 2.4 mM RGDS peptide and Integrilin® into sample III and sample IV respectively, incubated all samples at 37° C. for 10 min. Then, added […] labeled Fluoro®-488 SAP 6 into Sample II, Sample III and Sample IV (Sample I is negative control, added 100 μl medium inside). Incubated the four mixtures at 10° C. for 30 min, and then centrifuged the cell cultures at 400 g at 10° C. for 5 min to remove the suspension. Washed the cells 1-2 times with 1 ml D-MEM/F-12 medium without phenol red to remove the unbound compounds. Sort the negative (non-labeling SAP 6) and positive (binding labeled SAP 6) cells by fluorescence-activated cell-sorting (FACS). […] It is often considered as a negative control.

[2] = test system: SAP 6 binding to human platelets; details: for inhibition of SAP 6 binding to human platelets: ADP-activated platelets, Alexa Fluor 488 SAP 6
Procedure: Cells were incubated with labeled enzyme together with ADP and inhibitors respectively at 40° C., then pellets were resuspended in 100 ml Hepes-Tyrode buffer, and fluorescence measured by TECAN (Ex./Em.=488 nm/519 nm). […] T test (mean with SEM), n=3, *P<0.05, **P<0.001.
Recombinnat C. albicans SAP 6 was labeled with Alexa Fluor® 488 based on the Invitrogen Alexa Fluor® 488 protein labeling kit manual. […] To obtain the pure platelets, it needs to be further isolated as follows: (1) carefully transfer 10 ml platelets (including rich plasma) to a 15 ml tube and add 1/10 volume of ACD anticoagulant (6.25 g sodium citrate.2H2O, 3.1 g citric acid anhidrous, 3.4 g D-glucose in 250 ml H2O); (2) pellet platelets by centrifuged at 3000 rpm for 5 minutes at room temperature (note: after centrifugation, supernatant still contains significant amount of platelets and it can be collected for experiments); (3) resuspend the pellet in ˜1 ml Hepes-Tyrode buffer pH=7.4 (134 mM sodium chloride, 12 mM sodium bicarbonate, 2.9 mM potassium chloride, 0.34 mM sodium phosphate monobasic, 5 mM Hepes, 5 mM glucose, 1% BSA). When the human platelets were ready, they were incubated labeled SAP 6 with relative amount of platelets at 4° C., room temperature and 37° C. for 2 h, 1 h and 30 min respectively. The mixtures were washed by Hepes-Tyrode buffer two times at 1500 rpm for 8 min. Resuspended the pellets in Hepes-Tyrode buffer and mounted on glass slides. The glass slides were imaged by the epifluorescence microscope for simultaneous detection of Platelet/SAP 6-AlexaFluor-488 fluorescence (FIGS. 3A-B).
Purified recombination C. albicans SAP 6 was labeled by the Alexa Fluor° 488 Protein Labeling Kit from Invitrogen. […] Fifty μl purified human platelets were added into the total 100 μl reaction mixture. A gradient of ADP concentrations (0.25 μM, 0.5 μM and 1 μM) was designed to test if ADP can activate platelets during the binding assay (FIG. 4A).

[3] = cited from earlier work
[4] = test system: A549 cells; assay: Morphology assay, rescue of apoptosis of A549 cells induced by SAP 6; format: cell-based, human; details: bright-field images after two weeks incubation, data not shown
[5] = target: integrin of A549 cells (human lung carcinoma cells)

## N=C(N)NCCCC[C@@H]1NC(=O)CCSSC[C@@H](C(N)=O)NC(=O)[C@@H]2CCCN2C(=O)[C@H](Cc2c[nH]c3ccccc23)NC(=O)[C@H](CC(=O)O)NC(=O)CNC1=O [Integrilin®] ([Mpa][hArg]GDWPC-NH2; disulfide 1-7)
[1]
  ratio of positive cells in R4: 2.42%
  inhibition of SAP 6 binding to A549 cells: can inhibit; also recorded: significantly inhibit
[2]
  inhibition of SAP 6 binding to human platelets: dose-dependent inhibition

## CCC(C)n1ncn(-c2ccc(N3CCN(c4ccc(OCC5COC(Cn6cncn6)(c6ccc(Cl)cc6Cl)O5)cc4)CC3)cc2)c1=O (stereo not shown) [Itraconazole]
[3]; in vivo, po
  absorption in the fasting state relative to drug taken with food: 30%

## Clc1ccccc1C(c1ccccc1)(c1ccccc1)n1ccnc1 [Clotrimazole]
[3]; in vivo
  absorption after application to the skin: less than 0.5%
  absorption from the vagina: 3-10%

## Arg-Gly-Asp-Ser (RGDS)
[1]
  ratio of positive cells in R4: 1.68%
  inhibition of SAP 6 binding to A549 cells: much more inhibition than that of Integrilin®; also recorded: significantly inhibit
[4]
  rescue of apoptosis of A549 cells induced by SAP 6: can rescue the apoptosis
[2]
  inhibition of SAP 6 binding to human platelets: dose-dependent inhibition
[2]; FIG. 4B
  inhibition of SAP 6 binding to human platelets, compared between inhibitors: much stronger than that of Integrilin®

## SDGRG: reverse peptide with no competition for integrin binding, negative control
[1]
  inhibition of SAP 6 binding to A549 cells: significantly less inhibition
[1]; listed as RDGRG
  inhibition of SAP 6 binding to A549 cells: less inhibitory

## CC(=O)N1CCN(c2ccc(OCC3COC(Cn4ccnc4)(c4ccc(Cl)cc4Cl)O3)cc2)CC1 (stereo not shown) [Ketoconazole]
[3]; oral doses 200-800 mg
  peak plasma concentrations: 4 to 20 µg/mL

## Clc1ccc(COC(Cn2ccnc2)c2ccc(Cl)cc2Cl)cc1 (stereo not shown) [Econazole]
[3]; in vivo
  absorbed into the blood: Less than 1%

## secreted aspartic protease 6 (SAP 6) from Candida albicans, recombinant (from UniProt P43095) (enzyme)
[5]
  ratio of positive cells in R4: 3.23%

## Integrilin® (C35H49N11O9S2, molecular weight 831.96) (peptide)
[5]
  ratio of positive cells in R4: 2.42%

## OC(Cn1cncn1)(Cn1cncn1)c1ccc(F)cc1F [Fluconazole]
[3]; in vivo, po
  absorption from the GI tract: almost completely absorbed

B1: RGDS peptide (Arg-Gly-Asp-Ser) (peptide)
peptide: RGDS
[5]
  ratio of positive cells in R4: 1.68%
